Experimental findings from patent US11959486B2, “Stable liquid formulation of AMG 416 (etelcalcetide)” (AMGEN INC., priority 2013, dated 2024) are described below.

This data set in a line: Solution stability in different buffers (acetate, citrate, lactate, succinate), HPLC (Example 5). Type of data set: physicochemical. Conditions: all buffers tested. The procedure:
In this study, the stability of liquid formulations of AMG 416 was evaluated in four different buffers over 9 days. Buffered saline solutions were prepared at 25 mM concentration, pH 4.5, for four different anionic buffers in the sodium salt form: acetate, citrate, lactate and succinate. […] The solutions were diluted further with pH 4.5 buffer to 1.0 mg/mL and 0.25 mg/mL. Each of the resulting solutions was split to two glass HPLC vials, one stored at 2-8° C. and one at room temperature (about 25° C.). HPLC analysis was conducted at 0, 4 and 9 days for determination of potency and purity.

Take `CC(=O)N[C@H](CSSC[C@H](N)C(=O)O)C(=O)N[C@H](C)C(=O)N[C@H](CCCNC(=N)N)C(=O)N[C@H](CCCNC(=N)N)C(=O)N[C@H](CCCNC(=N)N)C(=O)N[C@H](C)C(=O)N[C@H](CCCNC(=N)N)C(N)=O` [AMG 416, N-acetyl-D-cysteinyl-D-alanyl-D-arginyl-D-arginyl-D-arginyl-D-alanyl-D-arginamide disulfide with L-cysteine]: the “stability during the 9 day study” value is “good stability”.
